Data reported in PubChem BioAssay (NCI).
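All cell lines were grown in 96-well plates and treated with compound for 48 hours. GI50 = concentration required for 50% inhibition of growth. TGI denotes the concentration required for complete inhibition of growth.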

How the values were obtained:
Test in all cases: NCI anticancer screen, dose series, 48 h
SF-539 CNS = system: SF-539 CNS
MDA-MB-435 = system: MDA-MB-435
ACHN renal = system: ACHN renal
NCI/ADR-RES ovarian = system: NCI/ADR-RES ovarian
TK-10 renal = system: TK-10 renal
IGROV1 ovarian = system: IGROV1 ovarian
NCI-H522 lung = system: NCI-H522 lung
HOP-92 NSCLC = system: HOP-92 NSCLC
SK-MEL-5 melanoma = system: SK-MEL-5 melanoma
CCRF-CEM leukemia = system: CCRF-CEM leukemia
EKVX NSCLC = system: EKVX NSCLC
UO-31 renal = system: UO-31 renal
MDA-MB-231 breast = system: MDA-MB-231 breast
SR leukemia = system: SR leukemia
HT29 colon = system: HT29 colon
NCI-H23 lung = system: NCI-H23 lung
SK-MEL-2 melanoma = system: SK-MEL-2 melanoma
OVCAR-8 ovarian = system: OVCAR-8 ovarian
MOLT-4 leukemia = system: MOLT-4 leukemia
NCI-H460 lung = system: NCI-H460 lung
SF-295 CNS = system: SF-295 CNS
UACC-62 melanoma = system: UACC-62 melanoma
U251 CNS = system: U251 CNS
HL-60(TB) leukemia = system: HL-60(TB) leukemia
K-562 leukemia = system: K-562 leukemia
HCT-15 colon = system: HCT-15 colon
A498 renal = system: A498 renal
HOP-62 NSCLC = system: HOP-62 NSCLC
DU-145 prostate = system: DU-145 prostate
OVCAR-4 ovarian = system: OVCAR-4 ovarian
MALME-3M melanoma = system: MALME-3M melanoma
NCI-H226 lung = system: NCI-H226 lung
CAKI-1 renal = system: CAKI-1 renal
SF-268 CNS = system: SF-268 CNS
BT-549 breast = system: BT-549 breast
SNB-19 CNS = system: SNB-19 CNS
KM12 colon = system: KM12 colon
HCT-116 colon = system: HCT-116 colon
M14 melanoma = system: M14 melanoma
RXF 393 renal = system: RXF 393 renal
OVCAR-3 ovarian = system: OVCAR-3 ovarian
SNB-75 CNS = system: SNB-75 CNS
HCC-2998 colon = system: HCC-2998 colon
PC-3 prostate = system: PC-3 prostate
UACC-257 melanoma = system: UACC-257 melanoma
RPMI-8226 leukemia = system: RPMI-8226 leukemia
SN12C renal = system: SN12C renal
HS 578T breast = system: HS 578T breast
SW-620 colon = system: SW-620 colon
LOX IMVI melanoma = system: LOX IMVI melanoma
SK-MEL-28 melanoma = system: SK-MEL-28 melanoma
SK-OV-3 ovarian = system: SK-OV-3 ovarian
COLO 205 colon = system: COLO 205 colon
A549 NSCLC = system: A549 NSCLC
786-0 renal = system: 786-0 renal
OVCAR-5 ovarian = system: OVCAR-5 ovarian
MCF7 breast = system: MCF7 breast

`CN1c2cccc[c]2[Sn]([CH3])([CH3])[c]2ccccc21` was tested, and the GI50 (SF-539 CNS) was < 11 nM, the TGI (SF-539 CNS) was 47.3 nM and the GI50 (MDA-MB-435) was < 10 nM. For the same molecule, the TGI (MDA-MB-435) was 29.1 nM, the GI50 (ACHN renal) was < 15.5 nM and the TGI (ACHN renal) was 170 nM. The GI50 (NCI/ADR-RES ovarian) was 13.2 nM, the TGI (NCI/ADR-RES ovarian) was 49.1 nM and the GI50 (TK-10 renal) was < 19.2 nM. For the same molecule, the TGI (TK-10 renal) was 135 nM, the GI50 (IGROV1 ovarian) was < 16.6 nM and the TGI (IGROV1 ovarian) was 140 nM. It also gave a GI50 (NCI-H522 lung) of 10.2 nM, a TGI (NCI-H522 lung) of 26.2 nM and a GI50 (HOP-92 NSCLC) of 10 nM. The TGI (HOP-92 NSCLC) was 104 nM, the GI50 (SK-MEL-5 melanoma) was < 10 nM and the TGI (SK-MEL-5 melanoma) was 23 nM. For the same molecule, the GI50 (CCRF-CEM leukemia) was < 10 nM, the TGI (CCRF-CEM leukemia) was 119 nM and the GI50 (EKVX NSCLC) was < 10 nM. For the same molecule, the TGI (EKVX NSCLC) was < 24.9 nM, the GI50 (UO-31 renal) was 37.4 nM and the TGI (UO-31 renal) was 182 nM. For the same molecule, the GI50 (MDA-MB-231 breast) was < 13.2 nM, the TGI (MDA-MB-231 breast) was 165 nM and the GI50 (SR leukemia) was < 10 nM. For the same molecule, the TGI (SR leukemia) was 38.7 nM, the GI50 (HT29 colon) was < 12 nM and the TGI (HT29 colon) was < 24.9 nM. The GI50 (NCI-H23 lung) was < 10 nM, the TGI (NCI-H23 lung) was 67.7 nM and the GI50 (SK-MEL-2 melanoma) was < 20.9 nM. For the same molecule, the TGI (SK-MEL-2 melanoma) was 180 nM, the GI50 (OVCAR-8 ovarian) was < 13.4 nM and the TGI (OVCAR-8 ovarian) was < 23 nM. For the same molecule, the GI50 (MOLT-4 leukemia) was 10.1 nM, the TGI (MOLT-4 leukemia) was 936 nM and the GI50 (NCI-H460 lung) was < 10 nM. For the same molecule, the TGI (NCI-H460 lung) was 12.6 nM, the GI50 (SF-295 CNS) was < 16.5 nM and the TGI (SF-295 CNS) was < 34 nM. The GI50 (UACC-62 melanoma) was < 14.7 nM, the TGI (UACC-62 melanoma) was 113 nM and the GI50 (U251 CNS) was < 16 nM. The TGI (U251 CNS) was 134 nM, the GI50 (HL-60(TB) leukemia) was < 10 nM and the TGI (HL-60(TB) leukemia) was 56.9 nM. The GI50 (K-562 leukemia) was < 10 nM, the TGI (K-562 leukemia) was 2130 nM and the GI50 (HCT-15 colon) was < 12.5 nM. It also gave a TGI (HCT-15 colon) of 116 nM, a GI50 (A498 renal) of 101 nM and a TGI (A498 renal) of 255 nM. For the same molecule, the GI50 (HOP-62 NSCLC) was < 13.7 nM, the TGI (HOP-62 NSCLC) was 71.4 nM and the GI50 (DU-145 prostate) was < 13.1 nM. The TGI (DU-145 prostate) was 98.8 nM, the GI50 (OVCAR-4 ovarian) was < 12.1 nM and the TGI (OVCAR-4 ovarian) was 232 nM. The GI50 (MALME-3M melanoma) was < 23.8 nM, the TGI (MALME-3M melanoma) was 226 nM and the GI50 (NCI-H226 lung) was < 13.8 nM. The TGI (NCI-H226 lung) was 132 nM, the GI50 (CAKI-1 renal) was 10 nM and the TGI (CAKI-1 renal) was < 35.6 nM. For the same molecule, the GI50 (SF-268 CNS) was < 17.8 nM, the TGI (SF-268 CNS) was 165 nM and the GI50 (BT-549 breast) was < 10 nM. It also gave a TGI (BT-549 breast) of 165 nM, a GI50 (SNB-19 CNS) of 21.2 nM and a TGI (SNB-19 CNS) of 215 nM. The GI50 (KM12 colon) was < 10 nM, the TGI (KM12 colon) was < 16.9 nM and the GI50 (HCT-116 colon) was < 10.7 nM. For the same molecule, the TGI (HCT-116 colon) was < 16.1 nM, the GI50 (M14 melanoma) was < 14.8 nM and the TGI (M14 melanoma) was 30.5 nM. For the same molecule, the GI50 (RXF 393 renal) was 27.9 nM, the TGI (RXF 393 renal) was 202 nM and the GI50 (OVCAR-3 ovarian) was < 11.5 nM. For the same molecule, the TGI (OVCAR-3 ovarian) was < 22.4 nM, the GI50 (SNB-75 CNS) was < 14.2 nM and the TGI (SNB-75 CNS) was 192 nM. For the same molecule, the GI50 (HCC-2998 colon) was < 10 nM, the TGI (HCC-2998 colon) was 24.7 nM and the GI50 (PC-3 prostate) was 19.1 nM. The TGI (PC-3 prostate) was 154 nM, the GI50 (UACC-257 melanoma) was < 10 nM and the TGI (UACC-257 melanoma) was < 21.7 nM. The GI50 (RPMI-8226 leukemia) was < 11.9 nM, the TGI (RPMI-8226 leukemia) was 31.6 nM and the GI50 (SN12C renal) was < 13.8 nM. For the same molecule, the TGI (SN12C renal) was 116 nM, the GI50 (HS 578T breast) was 16.6 nM and the TGI (HS 578T breast) was 683 nM. It also gave a GI50 (SW-620 colon) of 19 nM, a TGI (SW-620 colon) of 67.5 nM and a GI50 (LOX IMVI melanoma) of 10.7 nM. The TGI (LOX IMVI melanoma) was 30.4 nM, the GI50 (SK-MEL-28 melanoma) was 113 nM and the TGI (SK-MEL-28 melanoma) was 303 nM. For the same molecule, the GI50 (SK-OV-3 ovarian) was < 14.4 nM, the TGI (SK-OV-3 ovarian) was < 32.6 nM and the GI50 (COLO 205 colon) was 15 nM. The TGI (COLO 205 colon) was 57.2 nM, the GI50 (A549 NSCLC) was < 13.2 nM and the TGI (A549 NSCLC) was 93.2 nM. For the same molecule, the GI50 (786-0 renal) was < 14 nM, the TGI (786-0 renal) was 124 nM and the GI50 (OVCAR-5 ovarian) was < 11.5 nM. The TGI (OVCAR-5 ovarian) was 264 nM and the GI50 (MCF7 breast) was < 10 nM.
